# Patent publication US20230143604A1, “QW DOSING OF GIP RECEPTOR AGONIST PEPTIDE COMPOUNDS AND USES THEREOF” (TAKEDA PHARMACEUTICAL COMPANY LIMITED, priority 2020, published 2023)
# Starred links: 1 amine or outer side, 2 acyl side, 3 side chain; linkers in the order of their positions; H or OH if unused. Non-standard residues stand in square brackets, D forms with d. Residues, ends and D or L forms follow the SMILES beside them. Groups on a side chain read outwards from the residue. *: point of attachment. C20 diacid = O=C(O)CCCCCCCCCCCCCCCCCCC(=O)*; C17 diacid = O=C(O)CCCCCCCCCCCCCCCC(=O)*; γGlu = O=C(O)[C@H](CCC(=O)[*:2])N[*:1]; NMeY = CN[C@@H](Cc1ccc(O)cc1)C(=O)O; AEEA = NCCOCCOCC(=O)O; Aib = CC(C)(N)C(=O)O
# Experiment: physchem
# Settings: pH 7.4, aqueous buffer
# How it was run: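 Solubility at pH 7.4 determined by stepwise addition of 200 mM phosphate buffer in 100 μL increments to 3 mg peptide, mixing briefly each time, until no insoluble material remained, then measured by liquid chromatography.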
# [1] = pH 7.4 Phosphate Buffer - Solubility, 200 mM Phosphate buffer pH 7.4
SMILES,solubility [1],other results
CC[C@H](C)[C@H](NC(=O)[C@H](Cc1ccccc1)NC(=O)[C@@H](NC(=O)CNC(=O)[C@H](CCC(=O)O)NC(=O)C(C)(C)NC(=O)[C@H](Cc1ccc(O)cc1)NC)[C@@H](C)O)C(=O)N[C@@H](CO)C(=O)N[C@@H](CC(=O)O)C(=O)N[C@@H](Cc1ccc(O)cc1)C(=O)N[C@@H](CO)C(=O)N[C@H](C(=O)NC(C)(C)C(=O)N[C@@H](CC(C)C)C(=O)N[C@@H](CC(=O)O)C(=O)N[C@@H](CCCNC(=N)N)C(=O)N[C@@H](CCCCNC(=O)COCCOCCNC(=O)COCCOCCNC(=O)CC[C@H](NC(=O)CC[C@H](NC(=O)CCCCCCCCCCCCCCCC(=O)O)C(=O)O)C(=O)O)C(=O)N[C@@H](C)C(=O)N[C@@H](CCC(N)=O)C(=O)NC(C)(C)C(=O)N[C@@H](CC(N)=O)C(=O)N[C@@H](Cc1ccccc1)C(=O)N[C@H](C(=O)N[C@@H](CC(N)=O)C(=O)N[C@@H](Cc1c[nH]c2ccccc12)C(=O)N[C@@H](CC(C)C)C(=O)N[C@@H](CC(C)C)C(=O)N[C@@H](C)C(=O)N[C@@H](CCC(N)=O)C(=O)N[C@@H](CCCNC(=N)N)C(=O)NCC(=O)NCC(=O)NCC(=O)NCC(=O)N[C@@H](CO)C(N)=O)C(C)C)[C@@H](C)CC [Compound 271] (H-[NMeY][Aib]EGTFISDYSI[Aib]LDRK([AEEA-AEEA-γGlu-γGlu-C17 diacid])AQ[Aib]NFVNWLLAQRGGGGS-NH2),,solubility: ≥ 6 mg/mL
CC[C@H](C)[C@H](NC(=O)[C@H](CO)NC(=O)[C@H](Cc1ccc(O)cc1)NC(=O)[C@H](CC(=O)O)NC(=O)[C@H](CO)NC(=O)[C@@H](NC(=O)[C@H](Cc1ccccc1)NC(=O)[C@@H](NC(=O)CNC(=O)[C@H](CCC(=O)O)NC(=O)C(C)(C)NC(=O)[C@H](Cc1ccc(O)cc1)NC)[C@@H](C)O)[C@@H](C)CC)C(=O)N[C@@H](C)C(=O)N[C@@H](CC(C)C)C(=O)N[C@@H](CC(=O)O)C(=O)N[C@@H](CCCNC(=N)N)C(=O)NC(C)(C)C(=O)N[C@@H](C)C(=O)N[C@@H](CCC(N)=O)C(=O)NC(C)(C)C(=O)N[C@@H](CCCCNC(=O)COCCOCCNC(=O)COCCOCCNC(=O)CC[C@H](NC(=O)CC[C@H](NC(=O)CCCCCCCCCCCCCCCCCCC(=O)O)C(=O)O)C(=O)O)C(=O)N[C@@H](Cc1ccccc1)C(=O)N[C@H](C(=O)N[C@@H](CC(N)=O)C(=O)N[C@@H](Cc1c[nH]c2ccccc12)C(=O)N[C@@H](CC(C)C)C(=O)N[C@@H](CC(C)C)C(=O)N[C@@H](C)C(=O)N[C@@H](CCC(N)=O)C(=O)N[C@@H](CCCNC(=N)N)C(N)=O)C(C)C [Compound 272] (H-[NMeY][Aib]EGTFISDYSIALDR[Aib]AQ[Aib]K([AEEA-AEEA-γGlu-γGlu-C20 diacid])FVNWLLAQR-NH2),,solubility: ≥ 7.5 mg/mL
CC[C@H](C)[C@H](NC(=O)[C@H](CO)NC(=O)[C@H](Cc1ccc(O)cc1)NC(=O)[C@H](CC(=O)O)NC(=O)[C@H](CO)NC(=O)[C@@H](NC(=O)[C@H](Cc1ccccc1)NC(=O)[C@@H](NC(=O)CNC(=O)[C@H](CCC(=O)O)NC(=O)C(C)(C)NC(=O)[C@H](Cc1ccc(O)cc1)NC)[C@@H](C)O)[C@@H](C)CC)C(=O)N[C@@H](C)C(=O)N[C@@H](CCCCNC(=O)CNC(=O)CNC(=O)CNC(=O)CNC(=O)CNC(=O)CCCCCCCCCCCCCCCCC(=O)O)C(=O)N[C@@H](CC(=O)O)C(=O)N[C@@H](CCCNC(=N)N)C(=O)NC(C)(C)C(=O)N[C@@H](C)C(=O)N[C@@H](CCC(N)=O)C(=O)NC(C)(C)C(=O)N[C@@H](CC(N)=O)C(=O)N[C@@H](Cc1ccccc1)C(=O)N[C@H](C(=O)N[C@@H](CC(N)=O)C(=O)N[C@@H](Cc1c[nH]c2ccccc12)C(=O)N[C@@H](CC(C)C)C(=O)N[C@@H](CC(C)C)C(=O)N[C@@H](C)C(=O)N[C@@H](CCC(N)=O)C(=O)N[C@@H](CO)C(=O)N1CCC[C@H]1C(=O)N[C@@H](CO)C(=O)N[C@@H](CO)C(=O)NCC(=O)N[C@@H](C)C(=O)N1CCC[C@H]1C(=O)N1CCC[C@H]1C(=O)N1CCC[C@H]1C(=O)N[C@@H](CO)C(N)=O)C(C)C [Compound 273],≥ 6 mg/mL,
CC[C@H](C)[C@H](NC(=O)[C@H](CO)NC(=O)[C@H](Cc1ccc(O)cc1)NC(=O)[C@H](CC(=O)O)NC(=O)[C@H](CO)NC(=O)[C@@H](NC(=O)[C@H](Cc1ccccc1)NC(=O)[C@@H](NC(=O)CNC(=O)[C@H](CCC(=O)O)NC(=O)C(C)(C)NC(=O)[C@H](Cc1ccc(O)cc1)NC)[C@@H](C)O)[C@@H](C)CC)C(=O)N[C@@H](C)C(=O)N[C@@H](CCCCNC(=O)CNC(=O)CNC(=O)CNC(=O)CNC(=O)CNC(=O)CCCCCCCCCCCCCCCCC(=O)O)C(=O)N[C@@H](CC(=O)O)C(=O)N[C@@H](CCCNC(=N)N)C(=O)NC(C)(C)C(=O)N[C@@H](C)C(=O)N[C@@H](CCC(N)=O)C(=O)NC(C)(C)C(=O)N[C@@H](CC(=O)O)C(=O)N[C@@H](Cc1ccccc1)C(=O)N[C@H](C(=O)N[C@@H](CC(N)=O)C(=O)N[C@@H](Cc1c[nH]c2ccccc12)C(=O)N[C@@H](CC(C)C)C(=O)N[C@@H](CC(C)C)C(=O)N[C@@H](C)C(=O)N[C@@H](CCC(N)=O)C(=O)N[C@@H](CCCNC(=N)N)C(=O)N1CCC[C@H]1C(=O)N[C@@H](CO)C(=O)N[C@@H](CO)C(=O)NCC(=O)N[C@@H](C)C(=O)N1CCC[C@H]1C(=O)N1CCC[C@H]1C(=O)N1CCC[C@H]1C(=O)N[C@@H](CO)C(N)=O)C(C)C [Compound 274],≥ 10 mg/mL,
CC[C@H](C)[C@H](NC(=O)[C@H](Cc1ccccc1)NC(=O)[C@@H](NC(=O)CNC(=O)[C@H](CCC(=O)O)NC(=O)C(C)(C)NC(=O)[C@H](Cc1ccc(O)cc1)NC)[C@@H](C)O)C(=O)N[C@@H](CO)C(=O)N[C@@H](CC(=O)O)C(=O)N[C@@H](Cc1ccc(O)cc1)C(=O)N[C@@H](CO)C(=O)N[C@H](C(=O)NC(C)(C)C(=O)N[C@@H](CCCCNC(=O)CNC(=O)CNC(=O)CNC(=O)CNC(=O)CNC(=O)CCCCCCCCCCCCCCCCC(=O)O)C(=O)N[C@@H](CC(=O)O)C(=O)N[C@@H](CCCNC(=N)N)C(=O)NC(C)(C)C(=O)N[C@@H](C)C(=O)N[C@@H](CCC(N)=O)C(=O)NC(C)(C)C(=O)N[C@@H](CC(N)=O)C(=O)N[C@@H](Cc1ccccc1)C(=O)N[C@H](C(=O)N[C@@H](CC(N)=O)C(=O)N[C@@H](Cc1c[nH]c2ccccc12)C(=O)N[C@@H](CC(C)C)C(=O)N[C@@H](CC(C)C)C(=O)N[C@@H](C)C(=O)N[C@@H](CCC(N)=O)C(=O)N[C@@H](CO)C(=O)N1CCC[C@H]1C(=O)N[C@@H](CO)C(=O)N[C@@H](CO)C(=O)NCC(=O)N[C@@H](C)C(=O)N1CCC[C@H]1C(=O)N1CCC[C@H]1C(=O)N1CCC[C@H]1C(=O)N[C@@H](CO)C(N)=O)C(C)C)[C@@H](C)CC [Compound 275],< 15 mg/mL,
CC[C@H](C)[C@H](NC(=O)[C@H](Cc1ccccc1)NC(=O)[C@@H](NC(=O)CNC(=O)[C@H](CCC(=O)O)NC(=O)C(C)(C)NC(=O)[C@H](Cc1ccc(O)cc1)NC)[C@@H](C)O)C(=O)N[C@@H](CO)C(=O)N[C@@H](CC(=O)O)C(=O)N[C@@H](Cc1ccc(O)cc1)C(=O)N[C@@H](CO)C(=O)N[C@H](C(=O)NC(C)(C)C(=O)N[C@@H](CCCCNC(=O)CNC(=O)CNC(=O)CNC(=O)CNC(=O)CNC(=O)CCCCCCCCCCCCCCCCC(=O)O)C(=O)N[C@@H](CC(=O)O)C(=O)N[C@@H](CCCNC(=N)N)C(=O)NC(C)(C)C(=O)N[C@@H](C)C(=O)N[C@@H](CCC(N)=O)C(=O)NC(C)(C)C(=O)N[C@@H](CC(=O)O)C(=O)N[C@@H](Cc1ccccc1)C(=O)N[C@H](C(=O)N[C@@H](CC(N)=O)C(=O)N[C@@H](Cc1c[nH]c2ccccc12)C(=O)N[C@@H](CC(C)C)C(=O)N[C@@H](CC(C)C)C(=O)N[C@@H](C)C(=O)N[C@@H](CCC(N)=O)C(=O)N[C@@H](CCCNC(=N)N)C(=O)N1CCC[C@H]1C(=O)N[C@@H](CO)C(=O)N[C@@H](CO)C(=O)NCC(=O)N[C@@H](C)C(=O)N1CCC[C@H]1C(=O)N1CCC[C@H]1C(=O)N1CCC[C@H]1C(=O)N[C@@H](CO)C(N)=O)C(C)C)[C@@H](C)CC [Compound 276],< 15 mg/mL,
CC[C@H](C)[C@H](NC(=O)[C@H](CO)NC(=O)[C@H](Cc1ccc(O)cc1)NC(=O)[C@H](CC(C)C)NC(=O)[C@H](CO)NC(=O)[C@@H](NC(=O)[C@H](Cc1ccccc1)NC(=O)[C@@H](NC(=O)CNC(=O)[C@H](CCC(=O)O)NC(=O)C(C)(C)NC(=O)[C@H](Cc1ccc(O)cc1)NC)[C@@H](C)O)[C@@H](C)CC)C(=O)N[C@@H](C)C(=O)N[C@@H](CC(C)C)C(=O)N[C@@H](CC(=O)O)C(=O)N[C@@H](CCCNC(=N)N)C(=O)N[C@@H](CCCCNC(=O)CNC(=O)CNC(=O)CNC(=O)CNC(=O)CNC(=O)CNC(=O)CCCCCCCCCCCCCCCCC(=O)O)C(=O)N[C@@H](Cc1c[nH]cn1)C(=O)N[C@@H](CCC(N)=O)C(=O)NC(C)(C)C(=O)N[C@@H](CC(N)=O)C(=O)N[C@@H](Cc1ccccc1)C(=O)N[C@H](C(=O)N[C@@H](CC(N)=O)C(=O)N[C@@H](Cc1c[nH]c2ccccc12)C(=O)N[C@@H](CC(C)C)C(=O)N[C@@H](CC(C)C)C(=O)N[C@@H](C)C(=O)N[C@@H](CCC(N)=O)C(=O)N[C@@H](CCCNC(=N)N)C(=O)N1CCC[C@H]1C(=O)N[C@@H](CO)C(=O)N[C@@H](CO)C(=O)NCC(=O)N[C@@H](C)C(=O)N1CCC[C@H]1C(=O)N1CCC[C@H]1C(=O)N1CCC[C@H]1C(=O)N[C@@H](CO)C(=O)N[C@@H](CCCNC(=N)N)C(N)=O)C(C)C [Compound 277],,solubility (phosphate buffer): < 15 mg/mL
CC[C@H](C)[C@H](NC(=O)[C@H](CO)NC(=O)[C@H](Cc1ccc(O)cc1)NC(=O)[C@H](CC(=O)O)NC(=O)[C@H](CO)NC(=O)[C@@H](NC(=O)[C@H](Cc1ccccc1)NC(=O)[C@@H](NC(=O)CNC(=O)[C@H](CCC(N)=O)NC(=O)C(C)(C)NC(=O)[C@H](Cc1ccc(O)cc1)NC)[C@@H](C)O)[C@@H](C)CC)C(=O)N[C@@H](C)C(=O)N[C@@H](CC(C)C)C(=O)N[C@@H](CC(=O)O)C(=O)N[C@@H](CCCNC(=N)N)C(=O)N[C@@H](CCCCNC(=O)CNC(=O)CNC(=O)CNC(=O)CNC(=O)CNC(=O)CNC(=O)CCCCCCCCCCCCCCCCC(=O)O)C(=O)N[C@@H](Cc1c[nH]cn1)C(=O)N[C@@H](CCC(N)=O)C(=O)NC(C)(C)C(=O)N[C@@H](CC(N)=O)C(=O)N[C@@H](Cc1ccccc1)C(=O)N[C@H](C(=O)N[C@@H](CC(N)=O)C(=O)N[C@@H](Cc1c[nH]c2ccccc12)C(=O)N[C@@H](CC(C)C)C(=O)N[C@@H](CC(C)C)C(=O)N[C@@H](C)C(=O)N[C@@H](CCC(N)=O)C(=O)N[C@@H](CCCNC(=N)N)C(=O)N1CCC[C@H]1C(=O)N[C@@H](CO)C(=O)N[C@@H](CO)C(=O)NCC(=O)N[C@@H](C)C(=O)N1CCC[C@H]1C(=O)N1CCC[C@H]1C(=O)N1CCC[C@H]1C(=O)N[C@@H](CO)C(=O)N[C@@H](CCCNC(=N)N)C(N)=O)C(C)C [Compound 278],< 15 mg/mL,
